Source: ChEMBL document CHEMBL5543145, “Discovery of the First-in-Class G9a/GLP PROTAC Degrader” (J Med Chem, 2024)
The source made the active and inactive calls. The calls are words filed in the database; no cut-off is given here.

Tests used:
[1] = biological target: T1, von Hippel-Lindau disease tumor suppressor/Histone-lysine N-methyltransferase EHMT1 (Homo sapiens, UniProt Q9H9B1+P40337); assay: PROTAC activity at GLP/VHL in human 22Rv1 cells assessed as induction of GLP degradation incubated for 24 hrs by Western blot analysis; type: cell-based
[2] = test system: K562; assay: Cytotoxicity against human K562 cells assessed as reduction in cell viability incubated for 8 days; type: functional, cell-based; details: K562, 192 h
[3] = biological target: T1, von Hippel-Lindau disease tumor suppressor/Histone-lysine N-methyltransferase EHMT1; assay: PROTAC activity at GLP/VHL in human NCI-H1299 cells assessed as induction of GLP degradation at 3 uM incubated for 24 hrs by Western blot analysis; type: cell-based
Target sequence in this assay (P40337 whole entry partner): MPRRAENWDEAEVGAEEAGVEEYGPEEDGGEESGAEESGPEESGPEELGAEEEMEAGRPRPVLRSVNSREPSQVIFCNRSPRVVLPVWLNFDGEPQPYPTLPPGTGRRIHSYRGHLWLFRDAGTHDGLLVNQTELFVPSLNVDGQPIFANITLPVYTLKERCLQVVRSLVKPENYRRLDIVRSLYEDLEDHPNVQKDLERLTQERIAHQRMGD
Target sequence in this assay (Q9H9B1 2-1298 limits assumed): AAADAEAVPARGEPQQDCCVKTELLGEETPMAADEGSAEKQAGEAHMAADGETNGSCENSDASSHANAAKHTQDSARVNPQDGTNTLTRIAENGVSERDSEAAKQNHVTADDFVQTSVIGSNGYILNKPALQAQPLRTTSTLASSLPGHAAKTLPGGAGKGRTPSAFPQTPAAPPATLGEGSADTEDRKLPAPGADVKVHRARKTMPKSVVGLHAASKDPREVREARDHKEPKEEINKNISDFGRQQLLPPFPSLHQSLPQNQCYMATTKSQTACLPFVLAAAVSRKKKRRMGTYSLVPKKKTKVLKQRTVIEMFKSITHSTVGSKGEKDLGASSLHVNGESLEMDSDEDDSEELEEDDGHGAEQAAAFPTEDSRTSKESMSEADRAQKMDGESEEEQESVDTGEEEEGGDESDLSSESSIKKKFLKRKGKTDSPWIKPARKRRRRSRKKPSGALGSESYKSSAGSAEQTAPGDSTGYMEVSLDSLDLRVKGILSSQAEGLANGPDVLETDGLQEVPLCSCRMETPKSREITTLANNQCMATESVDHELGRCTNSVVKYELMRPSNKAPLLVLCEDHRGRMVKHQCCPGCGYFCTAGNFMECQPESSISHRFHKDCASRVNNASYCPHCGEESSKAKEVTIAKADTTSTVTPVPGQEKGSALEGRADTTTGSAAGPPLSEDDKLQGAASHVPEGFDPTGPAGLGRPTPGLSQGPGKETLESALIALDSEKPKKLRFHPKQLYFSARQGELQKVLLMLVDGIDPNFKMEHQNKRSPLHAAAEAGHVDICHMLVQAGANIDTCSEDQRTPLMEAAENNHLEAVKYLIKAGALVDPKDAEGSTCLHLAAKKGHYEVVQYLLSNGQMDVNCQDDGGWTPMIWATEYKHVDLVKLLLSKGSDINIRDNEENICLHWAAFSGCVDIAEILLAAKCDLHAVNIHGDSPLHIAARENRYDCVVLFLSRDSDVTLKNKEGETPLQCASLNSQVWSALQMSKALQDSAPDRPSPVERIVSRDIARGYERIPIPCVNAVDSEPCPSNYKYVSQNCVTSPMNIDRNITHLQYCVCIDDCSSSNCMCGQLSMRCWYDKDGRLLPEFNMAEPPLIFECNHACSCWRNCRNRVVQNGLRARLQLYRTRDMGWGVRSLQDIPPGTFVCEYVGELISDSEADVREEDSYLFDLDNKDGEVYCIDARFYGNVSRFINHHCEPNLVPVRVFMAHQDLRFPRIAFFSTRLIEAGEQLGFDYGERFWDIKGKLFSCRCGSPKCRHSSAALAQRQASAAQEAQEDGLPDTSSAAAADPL

[4] = biological target: T1, von Hippel-Lindau disease tumor suppressor/Histone-lysine N-methyltransferase EHMT1; assay: PROTAC activity at GLP/VHL in human 22Rv1 cells assessed as effect on VHL level at 3 uM incubated for 24 hrs by RT-qPCR analysis; type: cell-based
Target sequence in this assay (P40337 whole entry partner): as the sequence (P40337 whole entry partner) above
Target sequence in this assay (Q9H9B1 2-1298 limits assumed): as the sequence (Q9H9B1 2-1298 limits assumed) above

[5] = biological target: Histone-lysine N-methyltransferase, H3 lysine-36 specific (Homo sapiens) (UniProt Q96L73); assay: Inhibition of NSD1 (unknown origin) at 10 uM relative to control
[6] = test system: NCI-H1299; assay: Cytotoxicity against human NCI-H1299 cells assessed as growth inhibition incubated for 8 days; type: functional; details: NCI-H1299, 192 h, time 8 day
[7] = test system: CWR22R; assay: Inhibition of colony formation in human 22Rv1 cells upto 3 uM incubated for 8 days by ethyl violet staining based analysis; type: functional, cell-based; details: time 8.0 day
[8] = biological target: T2, von Hippel-Lindau disease tumor suppressor/Histone-lysine N-methyltransferase EHMT2 (Homo sapiens, UniProt Q96KQ7+P40337); assay: PROTAC activity at G9a/VHL in human NCI-H1299 cells assessed as induction of G9a degradation at 3 uM incubated for 24 hrs by Western blot analysis; type: cell-based
Target sequence in this assay (P40337 whole entry partner): as the sequence (P40337 whole entry partner) above
Target sequence in this assay (Q96KQ7 2-1210 limits assumed): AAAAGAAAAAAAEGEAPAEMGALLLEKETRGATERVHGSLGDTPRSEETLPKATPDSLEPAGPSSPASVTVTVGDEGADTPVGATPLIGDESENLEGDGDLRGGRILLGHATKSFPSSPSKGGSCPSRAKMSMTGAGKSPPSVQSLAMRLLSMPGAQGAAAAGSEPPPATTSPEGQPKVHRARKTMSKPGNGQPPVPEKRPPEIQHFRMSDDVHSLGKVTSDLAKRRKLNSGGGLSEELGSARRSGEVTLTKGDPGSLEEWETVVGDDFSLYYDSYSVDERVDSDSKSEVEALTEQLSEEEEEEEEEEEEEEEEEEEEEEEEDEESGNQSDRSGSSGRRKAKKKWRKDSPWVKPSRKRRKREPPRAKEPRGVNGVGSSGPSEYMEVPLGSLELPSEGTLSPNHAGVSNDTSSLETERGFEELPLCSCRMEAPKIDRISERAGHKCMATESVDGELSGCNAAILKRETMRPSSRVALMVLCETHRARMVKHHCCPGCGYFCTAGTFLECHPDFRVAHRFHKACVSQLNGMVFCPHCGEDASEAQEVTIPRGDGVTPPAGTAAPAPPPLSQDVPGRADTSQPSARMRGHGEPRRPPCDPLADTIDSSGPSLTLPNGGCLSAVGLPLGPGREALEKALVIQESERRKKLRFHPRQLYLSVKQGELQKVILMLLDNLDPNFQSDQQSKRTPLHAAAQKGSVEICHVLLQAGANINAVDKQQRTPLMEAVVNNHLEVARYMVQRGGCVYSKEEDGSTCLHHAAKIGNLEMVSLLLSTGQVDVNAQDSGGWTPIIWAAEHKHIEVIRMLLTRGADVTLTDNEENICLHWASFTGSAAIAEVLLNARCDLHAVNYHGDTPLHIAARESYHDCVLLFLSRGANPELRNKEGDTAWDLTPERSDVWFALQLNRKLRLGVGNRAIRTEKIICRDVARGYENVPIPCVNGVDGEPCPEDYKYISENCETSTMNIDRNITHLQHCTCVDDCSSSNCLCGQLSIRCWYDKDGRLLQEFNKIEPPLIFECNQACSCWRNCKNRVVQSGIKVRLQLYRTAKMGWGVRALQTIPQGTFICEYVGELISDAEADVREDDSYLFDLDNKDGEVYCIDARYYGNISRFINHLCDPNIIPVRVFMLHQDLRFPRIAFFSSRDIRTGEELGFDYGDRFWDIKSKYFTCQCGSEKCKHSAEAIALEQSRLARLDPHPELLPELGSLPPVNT

[9] = biological target: Histone-lysine N-methyltransferase 2A (Homo sapiens) (UniProt Q03164); assay: Inhibition of MLL1 (unknown origin) at 10 uM relative to control
[10] = biological target: T2, von Hippel-Lindau disease tumor suppressor/Histone-lysine N-methyltransferase EHMT2; assay: PROTAC activity at G9a/VHL in human 22Rv1 cells assessed as induction of G9a degradation incubated for 24 hrs by Western blot analysis; type: cell-based
[11] = biological target: Histone-lysine N-methyltransferase EZH2 (Homo sapiens) (UniProt Q15910); assay: Inhibition of EZH2 (unknown origin) at 10 uM relative to control
[12] = species on record: Homo sapiens; assay: Inhibition of SET6 (unknown origin) at 10 uM relative to control
[13] = biological target: T2, von Hippel-Lindau disease tumor suppressor/Histone-lysine N-methyltransferase EHMT2; assay: PROTAC activity at G9a/VHL in human 22Rv1 cells assessed as induction of G9a degradation at 0.3 uM incubated for 24 hrs by Western blot analysis relative to control; type: cell-based
Target sequence in this assay (P40337 whole entry partner): as the sequence (P40337 whole entry partner) above
Target sequence in this assay (Q96KQ7 2-1210 limits assumed): as the sequence (Q96KQ7 2-1210 limits assumed) above

[14] = biological target: T1, von Hippel-Lindau disease tumor suppressor/Histone-lysine N-methyltransferase EHMT1; assay: PROTAC activity at GLP/VHL in human 22Rv1 cells assessed as induction of GLP degradation at 1 uM pretreated with VHL-1 for 2 hrs followed by compound administration and measured after 24 hrs by Western blot analysis; type: cell-based
Target sequence in this assay (P40337 whole entry partner): as the sequence (P40337 whole entry partner) above
Target sequence in this assay (Q9H9B1 2-1298 limits assumed): as the sequence (Q9H9B1 2-1298 limits assumed) above

[15] = biological target: T2, von Hippel-Lindau disease tumor suppressor/Histone-lysine N-methyltransferase EHMT2; assay: PROTAC activity at G9a/VHL in human 22Rv1 cells assessed as induction of G9a degradation at 1 uM incubated for 24 hrs by Western blot analysis; type: cell-based
Target sequence in this assay (P40337 whole entry partner): as the sequence (P40337 whole entry partner) above
Target sequence in this assay (Q96KQ7 2-1210 limits assumed): as the sequence (Q96KQ7 2-1210 limits assumed) above

[16] = biological target: Histone-lysine N-methyltransferase SETD7 (Homo sapiens) (UniProt Q8WTS6); assay: Inhibition of SET7/9 (unknown origin) at 10 uM relative to control
[17] = biological target: T2, von Hippel-Lindau disease tumor suppressor/Histone-lysine N-methyltransferase EHMT2; assay: PROTAC activity at G9a/VHL in human 22Rv1 cells assessed as induction of G9a degradation at 3 uM by Western blot analysis; type: cell-based; details: time <= 48.0 hrs, TDE = time-dependent effect
Target sequence in this assay (P40337 whole entry partner): as the sequence (P40337 whole entry partner) above
Target sequence in this assay (Q96KQ7 2-1210 limits assumed): as the sequence (Q96KQ7 2-1210 limits assumed) above

[18] = biological target: Protein arginine N-methyltransferase 7 (Homo sapiens) (UniProt Q9NVM4); assay: Inhibition of PRMT7 (unknown origin) at 10 uM relative to control
Chain of Protein arginine N-methyltransferase 7 (Homo sapiens) (Q9NVM4 whole entry): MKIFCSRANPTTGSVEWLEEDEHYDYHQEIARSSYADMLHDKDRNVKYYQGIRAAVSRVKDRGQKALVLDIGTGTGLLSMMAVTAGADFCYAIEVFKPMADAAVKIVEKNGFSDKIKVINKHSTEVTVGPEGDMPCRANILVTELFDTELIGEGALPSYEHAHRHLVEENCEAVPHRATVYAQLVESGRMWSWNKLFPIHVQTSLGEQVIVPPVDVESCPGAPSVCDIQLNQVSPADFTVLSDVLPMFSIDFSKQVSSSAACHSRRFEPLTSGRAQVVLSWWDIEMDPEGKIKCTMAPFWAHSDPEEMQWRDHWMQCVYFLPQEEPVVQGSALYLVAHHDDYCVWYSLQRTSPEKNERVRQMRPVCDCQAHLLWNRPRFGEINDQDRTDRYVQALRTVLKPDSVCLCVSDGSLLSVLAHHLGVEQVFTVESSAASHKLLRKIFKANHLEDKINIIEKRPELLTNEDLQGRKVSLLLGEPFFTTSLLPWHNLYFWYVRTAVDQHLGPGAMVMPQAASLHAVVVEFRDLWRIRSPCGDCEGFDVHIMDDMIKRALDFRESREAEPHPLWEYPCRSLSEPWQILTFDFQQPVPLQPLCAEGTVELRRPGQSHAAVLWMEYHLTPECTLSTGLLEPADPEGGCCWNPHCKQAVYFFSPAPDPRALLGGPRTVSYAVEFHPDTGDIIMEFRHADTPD

[19] = biological target: T2, von Hippel-Lindau disease tumor suppressor/Histone-lysine N-methyltransferase EHMT2; assay: PROTAC activity at G9a/VHL in human 22Rv1 cells assessed as effect on G9a level at 3 uM incubated for 24 hrs by RT-qPCR analysis; type: cell-based
Target sequence in this assay (P40337 whole entry partner): as the sequence (P40337 whole entry partner) above
Target sequence in this assay (Q96KQ7 2-1210 limits assumed): as the sequence (Q96KQ7 2-1210 limits assumed) above

[20] = biological target: T1, von Hippel-Lindau disease tumor suppressor/Histone-lysine N-methyltransferase EHMT1; assay: PROTAC activity at GLP/VHL in human 22Rv1 cells assessed as induction of GLP degradation at 0.3 uM incubated for 24 hrs by Western blot analysis relative to control; type: cell-based
Target sequence in this assay (P40337 whole entry partner): as the sequence (P40337 whole entry partner) above
Target sequence in this assay (Q9H9B1 2-1298 limits assumed): as the sequence (Q9H9B1 2-1298 limits assumed) above

[21] = biological target: T2, von Hippel-Lindau disease tumor suppressor/Histone-lysine N-methyltransferase EHMT2; assay: PROTAC activity at G9a/VHL in human 22Rv1 cells assessed as induction of G9a degradation at 3 uM incubated for 24 hrs by Western blot analysis relative to control; type: cell-based
Target sequence in this assay (P40337 whole entry partner): as the sequence (P40337 whole entry partner) above
Target sequence in this assay (Q96KQ7 2-1210 limits assumed): as the sequence (Q96KQ7 2-1210 limits assumed) above

[22] = biological target: T1, von Hippel-Lindau disease tumor suppressor/Histone-lysine N-methyltransferase EHMT1; assay: PROTAC activity at GLP/VHL in human 22Rv1 cells assessed as induction of GLP degradation at 3 uM incubated for 24 hrs by Western blot analysis relative to control; type: cell-based
Target sequence in this assay (P40337 whole entry partner): as the sequence (P40337 whole entry partner) above
Target sequence in this assay (Q9H9B1 2-1298 limits assumed): as the sequence (Q9H9B1 2-1298 limits assumed) above

[23] = test system: K562; assay: Cytotoxicity against human K562 cells assessed as growth inhibition incubated for 7 days; type: functional; details: K562, 168 h, time 7 day
[24] = test system: CWR22R; assay: Effect on EZH2 level in human 22Rv1 cells at 3 uM incubated for 24 hrs by Western blot analysis; type: functional, cell-based
[25] = biological target: Protein arginine N-methyltransferase 6 (Homo sapiens) (UniProt Q96LA8); assay: Inhibition of PRMT6 (unknown origin) at 10 uM relative to control
[26] = biological target: T1, von Hippel-Lindau disease tumor suppressor/Histone-lysine N-methyltransferase EHMT1; assay: PROTAC activity at GLP/VHL in human 22Rv1 cells assessed as induction of GLP degradation at 3 uM by Western blot analysis; type: cell-based; details: time <= 48.0 hrs, TDE = time-dependent effect
Target sequence in this assay (P40337 whole entry partner): as the sequence (P40337 whole entry partner) above
Target sequence in this assay (Q9H9B1 2-1298 limits assumed): as the sequence (Q9H9B1 2-1298 limits assumed) above

[27] = biological target: Protein arginine N-methyltransferase 3 (Homo sapiens) (UniProt O60678); assay: Inhibition of PRMT3 (unknown origin) at 10 uM relative to control
Chain of Protein arginine N-methyltransferase 3 (Homo sapiens) (O60678 2-531 limits assumed): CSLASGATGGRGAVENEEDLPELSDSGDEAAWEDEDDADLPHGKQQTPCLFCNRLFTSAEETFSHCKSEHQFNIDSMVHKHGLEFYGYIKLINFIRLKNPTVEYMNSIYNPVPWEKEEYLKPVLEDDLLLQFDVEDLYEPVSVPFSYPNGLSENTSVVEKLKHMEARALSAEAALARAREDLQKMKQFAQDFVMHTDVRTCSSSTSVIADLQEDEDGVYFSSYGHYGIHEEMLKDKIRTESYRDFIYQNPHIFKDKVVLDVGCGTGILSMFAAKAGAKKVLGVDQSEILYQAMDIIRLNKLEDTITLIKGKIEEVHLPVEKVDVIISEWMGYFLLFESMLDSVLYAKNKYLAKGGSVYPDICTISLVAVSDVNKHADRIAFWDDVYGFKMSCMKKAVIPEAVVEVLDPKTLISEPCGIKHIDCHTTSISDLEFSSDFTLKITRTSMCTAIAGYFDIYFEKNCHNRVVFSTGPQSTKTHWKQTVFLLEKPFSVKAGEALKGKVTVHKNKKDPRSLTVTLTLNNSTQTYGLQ

[28] = biological target: T1, von Hippel-Lindau disease tumor suppressor/Histone-lysine N-methyltransferase EHMT1; assay: PROTAC activity at GLP/VHL in human 22Rv1 cells assessed as induction of GLP degradation at 3 uM measured at 24 to 48 hrs by Western blot analysis; type: cell-based; details: time 24-48 hrs
[29] = biological target: T2, von Hippel-Lindau disease tumor suppressor/Histone-lysine N-methyltransferase EHMT2; assay: PROTAC activity at G9a/VHL in human K562 cells assessed as induction of G9a degradation at 3 uM incubated for 24 hrs by Western blot analysis; type: cell-based
[30] = biological target: Protein arginine N-methyltransferase 1 (Homo sapiens) (UniProt Q99873); assay: Inhibition of PRMT1 (unknown origin) at 10 uM relative to control
[31] = biological target: T1, von Hippel-Lindau disease tumor suppressor/Histone-lysine N-methyltransferase EHMT1; assay: PROTAC activity at GLP/VHL in human 22Rv1 cells assessed as induction of GLP degradation at 1 uM incubated for 24 hrs by Western blot analysis; type: cell-based
[32] = biological target: Histone-lysine N-methyltransferase NSD3 (Homo sapiens) (UniProt Q9BZ95); assay: Inhibition of NSD3 (unknown origin) at 10 uM relative to control
[33] = biological target: Histone-lysine N-methyltransferase SETD1B (Homo sapiens) (UniProt Q9UPS6); assay: Inhibition of SET1b (unknown origin) at 10 uM relative to control
[34] = biological target: T1, von Hippel-Lindau disease tumor suppressor/Histone-lysine N-methyltransferase EHMT1; assay: PROTAC activity at GLP/VHL in human K562 cells assessed as induction of GLP degradation at 3 uM incubated for 24 hrs by Western blot analysis; type: cell-based
[35] = biological target: T2, von Hippel-Lindau disease tumor suppressor/Histone-lysine N-methyltransferase EHMT2; assay: PROTAC activity at G9a/VHL in human 22Rv1 cells assessed as induction of G9a degradation at 1 uM pretreated with VHL-1 for 2 hrs followed by compound administration and measured after 24 hrs by Western blot analysis; type: cell-based
[36] = biological target: Histone-lysine N-methyltransferase EZH1 (Homo sapiens) (UniProt Q92800); assay: Inhibition of EZH1 (unknown origin) at 10 uM relative to control

COc1cc2c(NC3CCN(CCCC(=O)NCCCCCCCCCCCC(=O)N[C@H](C(=O)N4C[C@H](O)C[C@H]4C(=O)NCc4ccc(-c5scnc5C)cc4)C(C)(C)C)CC3)nc(N3CCC(F)(F)CC3)nc2cc1OCCCN1CCCC1
DC50 [1]: 260 nM | IC50 [2]: 2000 nM | Activity [3]: Active | Activity [4]: Active | inhibition [5]: > 50% | GI50 [6]: 5000 nM | inhibition [7]: Active | Activity [8]: Active | inhibition [9]: > 50% | DC50 [10]: 274 nM | inhibition [11]: > 50% | inhibition [12]: > 50% | Emax [13]: 73% | Activity [14]: Active | Activity [15]: Active | inhibition [16]: > 50% | Activity [17]: Tde | inhibition [18]: > 50% | Activity [19]: Active | Emax [20]: 49% | Emax [21]: > 99% | Emax [22]: > 99% | GI50 [23]: 2000 nM | Activity [24]: Active | inhibition [25]: > 50% | Activity [26]: Tde | inhibition [27]: > 50% | Activity [28]: 100% | Activity [29]: Active | inhibition [30]: > 50% | Activity [31]: Active | inhibition [32]: > 50% | inhibition [33]: > 50% | Activity [34]: Active | Activity [35]: Active | inhibition [36]: > 50%
